Reference: article PMC4366281 (Nature chemical biology, 2015)

Biological target: T1, MtbVKOR (Mycobacterium tuberculosis, UniProt I6X5W1)
T1 sequence (I6X5W1 1-210): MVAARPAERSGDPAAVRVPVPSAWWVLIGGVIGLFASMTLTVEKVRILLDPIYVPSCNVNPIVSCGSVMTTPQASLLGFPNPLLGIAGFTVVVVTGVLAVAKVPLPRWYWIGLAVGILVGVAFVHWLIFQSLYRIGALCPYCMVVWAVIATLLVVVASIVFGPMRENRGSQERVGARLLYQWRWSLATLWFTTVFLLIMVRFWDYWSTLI
Experiment: HTS agar 384-well X-Gal assay, MtbVKOR-complemented E. coli dsbB null strain
Format: cell-based
Settings: agar assay / re-test

Question: Which “inhibition of MtbVKOR-dependent E. coli strain” value does the source give for `O=C1c2ccccc2C(=O)C1c1ccc(Br)cc1` [brominedione] here?
Answer: specific hit
